The source of these data is the NIST ThermoML archive (doi:10.1021/acs.jced.8b01110).

Numbers after ± are expanded uncertainties.

A short description of data set [1]: wn = mass fraction of the nth substance listed. Particulars: 313.15 K, 88.4 kPa, Liquid; for viscosity: Capillary tube (Ostwald / Ubbelohde) method; for mass density: Pycnometric method.
Data set [2] is described as follows: refractive index (Na D-line) (dimensionless); wn = mass fraction of the nth substance listed. Particulars: 313.15 K, 88.4 kPa, Liquid, Standard Abbe refractometry.

On to `O=[N+]([O-])[O-].[Na+]` [sodium nitrate] + O, for which, in data set [1] (w1 = 0.5082), the viscosity (usually the internal friction of a fluid under shear) was found to be 2.14 ± 0.43 mPa·s and the mass density (in general, the mass of a sample divided by its volume) came to 1408.4 ± 10 kg/m3. For the same compound, the refractive index (in general, the speed of light in vacuum divided by its phase velocity in the sample) in data set [2] (w1 = 0.5082) came out at 1.39164 ± 0.00086.

Consider `O=S(=O)([O-])[O-].[Na+].[Na+]` [sodium sulfate] + O, for which, in data set [1] (w1 = 0.3289), the viscosity came out at 2.703 ± 0.54 mPa·s and the mass density was 1317 ± 10 kg/m3. Also, the refractive index in data set [2] (w1 = 0.3289) is given as 1.37791 ± 0.00085.
